≈ marks a conversion by molar mass, not a printed value. Read-outs that look alike come from different tables or passages of the source.
Key:
Experiment in all cases: CLSI broth dilution MIC determination
Type in all cases: cell-based
E. coli ATCC 25922 = test system: E. coli ATCC 25922
Outline: (§1)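 MICs were measured by broth dilution following CLSI standard procedures. Azithromycin and solithromycin served as control macrolides in many cases. Macrolide-resistance genotypes in the panel may be constitutive or inducible.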

E. coli CTX-M-14 = test system: E. coli CTX-M-14
Outline: as §1

E. coli NDM-1 = test system: E. coli NDM-1
Outline: as §1

E. coli TEM-1 = test system: E. coli TEM-1
Outline: as §1

H. influenzae ATCC49247 = test system: H. influenzae ATCC49247
Outline: as §1

K. pneumoniae TEM-10 = test system: K. pneumoniae TEM-10
S. aureus ATCC 29213 = test system: S. aureus ATCC 29213
Outline: as §1

S. aureus MRSA: USA100 = test system: S. aureus MRSA: USA100
Outline: as §1

S. aureus MRSA: USA300 = test system: S. aureus MRSA: USA300
Outline: as §1

S. aureus USA600, GISA = test system: S. aureus USA600, GISA
Outline: as §1

S. aureus erm A genotype = test system: S. aureus erm A genotype
Outline: as §1

S. pneumoniae ATCC 49619 = test system: S. pneumoniae ATCC 49619
Outline: as §1

[1] = test system: S. pneumoniae erm B + mef A genotype; settings: Streptococcus pneumoniae
Outline: as §1

[2] = test system: S. pneumoniae erm B + tet(M,O) genotype; settings: Streptococcus pneumoniae
Outline: as §1

[3] = test system: S. pneumoniae mef A genotype (second strain so labelled)
Outline: as §1

S. pyogenes ATCC 19615 = test system: S. pyogenes ATCC 19615
[4] = test system: S. pyogenes Macrolide-resistant
E. faecalis ATCC 29212 = test system: E. faecalis ATCC 29212
[5] = test system: E. faecalis Vancomycin-resistant
A. baumannii ATCC 19606 = test system: A. baumannii ATCC 19606
[6] = test system: A. baumannii imipenem-resistant
[7] = test system: A. baumannii chromosomal class C
A. baumannii IMP-4 = test system: A. baumannii IMP-4
K. pneumoniae ATCC 10031 = test system: K. pneumoniae ATCC 10031
K. pneumoniae KPC-2 = test system: K. pneumoniae KPC-2
K. pneumoniae SHV-12 = test system: K. pneumoniae SHV-12
P. aeruginosa ATCC 27853 = test system: P. aeruginosa ATCC 27853
[8] = test system: P. aeruginosa HPA101-1477
[9] = test system: H. influenzae Erythro >4, Azithro 1
Excerpt: MIC data was collected for the novel macrolides that this platform has produced against over 21 unique strains of B. subtilis, E. coli, S. aureus, S. pneumoniae, and H. influenzae, including several multidrug-resistant strains, with a special focus on macrolide resistant mechanisms (vide supra). […] CLSI standard procedures for broth dilution MIC determination were used. […] These genotypes can be constitutive or inducible.

[10] = Haemophilus influenzae, read-out: MIC
[11] = Acinetobacter baumannii, read-out: MIC

How did the MIC (E. coli ATCC 25922; E. coli ATCC 25922, Gram-negative) turn out when `CC[C@H]1OC(=O)[C@@](C)(F)C(=O)[C@H](C)[C@@H](O[C@@H]2OC(C)CC(N(C)C)C2O)[C@](C)(OC)C[C@@H](C)C(=O)[C@H](C)[C@H]2N(CC#CCn3cc(-c4cccc(N)c4)nn3)C(=O)O[C@]12C` (some centres unmarked) [FSM-100426] was run?
Its MIC is 32 µg/mL (≈ 38.1 µM).

And the MIC (E. coli ATCC 25922; Escherichia coli, ATCC25922, E. coli ATCC 25922 (MP-4), read-out: MIC)?
The MIC was 32 µg/mL (≈ 38.1 µM).

And the MIC (E. coli CTX-M-14; Escherichia coli, CTXM14, read-out: MIC)?
Its MIC is greater than 32 µg/mL.

What about the MIC (E. coli CTX-M-14; Gram-negative) of the same compound?
The MIC was greater than 32 µg/mL.

And the MIC (E. coli NDM-1; Escherichia coli, NDM1, read-out: MIC)?
Its MIC is greater than 32 µg/mL.

What about the MIC (E. coli NDM-1; Gram-negative) of the same compound?
The MIC was greater than 32 µg/mL.

And the MIC (E. coli TEM-1; E. coli TEM-1, Gram-negative)?
The MIC was greater than 32 µg/mL.

And the MIC (E. coli TEM-1; Escherichia coli, TEM1)?
The MIC was greater than 32 µg/mL.

What about the MIC (H. influenzae ATCC49247; Gram-negative) of the same compound?
The MIC was 4 µg/mL (≈ 4.76 µM).

What about the MIC (H. influenzae ATCC49247; [10]) of the same compound?
Its MIC is 4 µg/mL (≈ 4.76 µM).

And the MIC (K. pneumoniae TEM-10; Gram-negative)?
The MIC was greater than 32 µg/mL.

What about the MIC (K. pneumoniae TEM-10; Klebsiella pneumoniae, TEM10, read-out: MIC) of the same compound?
Its MIC is greater than 32 µg/mL.

And the MIC (S. aureus ATCC 29213; S. aureus ATCC 29213, Gram-positive)?
The MIC was 0.0625 µg/mL (≈ 0.0743 µM).

What about the MIC (S. aureus ATCC 29213; Staphylococcus aureus, ATCC29213, S. aureus ATCC 29213 (MP-12), read-out: MIC) of the same compound?
The MIC was 0.0625 µg/mL (≈ 0.0743 µM).

What about the MIC (S. aureus MRSA: USA100; S. aureus MRSA: USA100, Gram-positive) of the same compound?
Its MIC is greater than 32 µg/mL.

What about the MIC (S. aureus MRSA: USA100; Staphylococcus aureus, S. aureus MRSA: USA100 (MP-618 UNT-096), read-out: MIC) of the same compound?
The MIC was greater than 32 µg/mL.

What about the MIC (S. aureus MRSA: USA300; S. aureus MRSA: USA300, Gram-positive) of the same compound?
The MIC was 0.5 µg/mL (≈ 0.595 µM).

And the MIC (S. aureus MRSA: USA300; Staphylococcus aureus, S. aureus MRSA: USA300 (MP-549, msr(a)), read-out: MIC)?
The MIC was 0.5 µg/mL (≈ 0.595 µM).

What about the MIC (S. aureus USA600, GISA; S. aureus USA600, GISA, Gram-positive) of the same compound?
Its MIC is 32 µg/mL (≈ 38.1 µM).

What about the MIC (S. aureus USA600, GISA; Staphylococcus aureus, S. aureus USA600, GISA (MP-619 UNT-120), read-out: MIC) of the same compound?
Its MIC is 32 µg/mL (≈ 38.1 µM).

And the MIC (S. aureus erm A genotype; S. aureus erm A genotype, Gram-positive)?
Its MIC is greater than 32 µg/mL.

And the MIC (S. aureus erm A genotype; Staphylococcus aureus, S. aureus erm A genotype (MP-620 UNT-146), read-out: MIC)?
The MIC was greater than 32 µg/mL.

And the MIC (S. pneumoniae ATCC 49619; S. pneumoniae ATCC 49619, Gram-positive)?
The MIC was less than 0.0312 µg/mL.

And the MIC (S. pneumoniae ATCC 49619; Streptococcus pneumoniae, ATCC49619, S. pneumoniae ATCC 49619 (MP-21), read-out: MIC)?
The MIC was less than 0.0312 µg/mL.

What about the MIC [1] of the same compound?
Its MIC is less than 0.0312 µg/mL.

What about the MIC [2] of the same compound?
Its MIC is less than 0.0312 µg/mL.

And the MIC ([3]; Gram-positive)?
The MIC was less than 0.0312 µg/mL.

What about the MIC ([3]; Streptococcus pneumoniae, second strain (MP-627 UNT-039), read-out: MIC) of the same compound?
The MIC was less than 0.0312 µg/mL.

What about the MIC (S. pyogenes ATCC 19615; S. pyogenes ATCC 19615, Gram-positive) of the same compound?
The MIC was less than 0.0312 µg/mL.

What about the MIC (S. pyogenes ATCC 19615; Streptococcus pyogenes, ATCC19615, S. pyogenes ATCC 19615 (MP-19), read-out: MIC) of the same compound?
Its MIC is less than 0.0312 µg/mL.

What about the MIC ([4]; S. pyogenes Macrolide-resistant, Gram-positive) of the same compound?
Its MIC is less than 0.0312 µg/mL.

And the MIC ([4]; Streptococcus pyogenes, S. pyogenes Macrolide-resistant (MP-625 UNT-014), read-out: MIC)?
The MIC was less than 0.0312 µg/mL.

And the MIC (E. faecalis ATCC 29212; E. faecalis ATCC 29212, Gram-positive)?
Its MIC is less than 0.0312 µg/mL.

What about the MIC (E. faecalis ATCC 29212; Enterococcus faecalis, ATCC29212, E. faecalis ATCC 29212 (MP-24), read-out: MIC) of the same compound?
The MIC was less than 0.0312 µg/mL.

And the MIC ([5]; E. faecalis Vancomycin-resistant, Gram-positive)?
Its MIC is 8 µg/mL (≈ 9.51 µM).

What about the MIC ([5]; Enterococcus faecalis, E. faecalis Vancomycin-resistant (UNT-039), read-out: MIC) of the same compound?
Its MIC is 8 µg/mL (≈ 9.51 µM).

What about the MIC (A. baumannii ATCC 19606; A. baumannii ATCC 19606, Gram-negative) of the same compound?
The MIC was 16 µg/mL (≈ 19 µM).

And the MIC (A. baumannii ATCC 19606; Acinetobacter baumannii, ATCC19606, A. baumannii ATCC 19606 (MP-15), read-out: MIC)?
The MIC was 16 µg/mL (≈ 19 µM).

And the MIC [6, 11]?
The MIC was 8 µg/mL (≈ 9.51 µM).

And the MIC ([6]; Gram-negative)?
The MIC was 8 µg/mL (≈ 9.51 µM).

What about the MIC [7, 11] of the same compound?
Its MIC is 32 µg/mL (≈ 38.1 µM).

What about the MIC ([7]; Gram-negative) of the same compound?
The MIC was 32 µg/mL (≈ 38.1 µM).

And the MIC (A. baumannii IMP-4; Acinetobacter baumannii, IMP4, read-out: MIC)?
The MIC was greater than 32 µg/mL.

What about the MIC (A. baumannii IMP-4; Gram-negative) of the same compound?
Its MIC is greater than 32 µg/mL.

And the MIC (K. pneumoniae ATCC 10031; K. pneumoniae ATCC 10031, Gram-negative)?
Its MIC is 8 µg/mL (≈ 9.51 µM).

And the MIC (K. pneumoniae ATCC 10031; Klebsiella pneumoniae, ATCC10031, K. pneumoniae ATCC 10031 (MP-14), read-out: MIC)?
The MIC was 8 µg/mL (≈ 9.51 µM).

And the MIC (K. pneumoniae KPC-2; Gram-negative)?
The MIC was greater than 32 µg/mL.

And the MIC (K. pneumoniae KPC-2; Klebsiella pneumoniae, KPC2, read-out: MIC)?
The MIC was greater than 32 µg/mL.

And the MIC (K. pneumoniae SHV-12; Gram-negative)?
Its MIC is greater than 32 µg/mL.

And the MIC (K. pneumoniae SHV-12; Klebsiella pneumoniae, SHV12, read-out: MIC)?
Its MIC is greater than 32 µg/mL.

And the MIC (P. aeruginosa ATCC 27853; P. aeruginosa ATCC 27853, Gram-negative)?
Its MIC is greater than 32 µg/mL.

What about the MIC (P. aeruginosa ATCC 27853; Pseudomonas aeruginosa, ATCC27853, P. aeruginosa ATCC 27853 (MP-3), read-out: MIC) of the same compound?
Its MIC is greater than 32 µg/mL.

And the MIC ([8]; Gram-negative)?
The MIC was greater than 32 µg/mL.

What about the MIC ([8]; Pseudomonas aeruginosa, HPA1011477, read-out: MIC) of the same compound?
Its MIC is greater than 32 µg/mL.

And the MIC ([9]; H. influenzae Erythro >4, Azithro 1, Gram-negative)?
Its MIC is 4 µg/mL (≈ 4.76 µM).

And the MIC [9, 10]?
The MIC was 4 µg/mL (≈ 4.76 µM).

Source: US10633407B2, “14-membered ketolides and methods of their preparation and use” (President and Fellows of Harvard College, priority 2014, dated 2020)
